Measurements: patent publication US10047058B2, “Compounds and methods for inhibiting vacuolar ATPase” (University of Southern California, priority 2015, dated 2018)
One block for each compound: values may come before it.

Tests used:
mammalian cells = settings: cited from earlier work
[1] = system: MB231 breast cancer cells; settings: cited from earlier work
ATP6V1A = ATP6V1A (Homo sapiens, UniProt P38606)
Sequence of ATP6V1A (P38606 whole entry): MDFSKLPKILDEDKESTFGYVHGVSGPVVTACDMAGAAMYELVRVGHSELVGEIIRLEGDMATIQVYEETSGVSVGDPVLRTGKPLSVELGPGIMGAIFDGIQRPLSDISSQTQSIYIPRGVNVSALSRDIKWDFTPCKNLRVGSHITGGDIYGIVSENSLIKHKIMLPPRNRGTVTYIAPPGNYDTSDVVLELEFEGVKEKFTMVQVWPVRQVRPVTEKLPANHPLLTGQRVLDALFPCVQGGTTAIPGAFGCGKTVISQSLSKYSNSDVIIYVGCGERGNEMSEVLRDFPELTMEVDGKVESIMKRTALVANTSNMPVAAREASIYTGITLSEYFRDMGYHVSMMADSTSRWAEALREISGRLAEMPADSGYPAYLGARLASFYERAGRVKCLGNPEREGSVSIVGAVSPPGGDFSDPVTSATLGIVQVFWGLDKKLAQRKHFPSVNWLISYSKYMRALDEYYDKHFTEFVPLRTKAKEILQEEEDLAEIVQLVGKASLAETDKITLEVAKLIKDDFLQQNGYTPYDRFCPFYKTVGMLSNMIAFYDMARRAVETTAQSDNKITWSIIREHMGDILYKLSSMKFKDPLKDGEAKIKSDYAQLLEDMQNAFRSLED

Compound: archazolid
concentration that blocks growth of mammalian cells (mammalian cells): subnanomolar

Compound: CO/C1=C\C(C)=C\[C@@H](C)[C@@H](O)[C@@H](C)C/C(C)=C/C=C/[C@H](OC)[C@@H]([C@@H](C)[C@@H](O)[C@H](C)[C@@]2(O)C[C@@H](O)[C@H](C)[C@@H](C(C)C)O2)OC1=O [bafilomycin]
effect on invasiveness of cancer cells [1]: significantly inhibited

IC50 (ATP6V1A): ~30 nM
inhibition of probe QZ1 labeling (screen of electrophilic quinazolines) (ATP6V1A; 1 μM, cells pretreated with drug 30 min, then probe for 30 min): showed potent inhibition
Compound: O=C(CCl)Nc1ccc2c(Nc3ccccc3)ncnc2c1 [Formula I]
